Assay results taken from patent US11571418B2, “Platinum compounds that inhibit constitutive STAT3 signaling and induce cell cycle arrest and apoptosis of malignant cells” (H. LEE MOFFITT CANCER CENTER AND RESEARCH INSTITUTE, INC., priority 2011, dated 2023).

How the values were obtained:
inactive Stat1 monomer = target: T1, inactive Stat1 monomer (Homo sapiens, UniProt P42224); test: Inactive STAT monomer added to activated Stat3 before EMSA (titration of compound); format: binding; details: monomer added to activated Stat3, pre-incubated with compound 30 min
T1 construct: made in house; host or cells: Sf-9 insect cells infected with baculovirus
T1 sequence (P42224 whole entry): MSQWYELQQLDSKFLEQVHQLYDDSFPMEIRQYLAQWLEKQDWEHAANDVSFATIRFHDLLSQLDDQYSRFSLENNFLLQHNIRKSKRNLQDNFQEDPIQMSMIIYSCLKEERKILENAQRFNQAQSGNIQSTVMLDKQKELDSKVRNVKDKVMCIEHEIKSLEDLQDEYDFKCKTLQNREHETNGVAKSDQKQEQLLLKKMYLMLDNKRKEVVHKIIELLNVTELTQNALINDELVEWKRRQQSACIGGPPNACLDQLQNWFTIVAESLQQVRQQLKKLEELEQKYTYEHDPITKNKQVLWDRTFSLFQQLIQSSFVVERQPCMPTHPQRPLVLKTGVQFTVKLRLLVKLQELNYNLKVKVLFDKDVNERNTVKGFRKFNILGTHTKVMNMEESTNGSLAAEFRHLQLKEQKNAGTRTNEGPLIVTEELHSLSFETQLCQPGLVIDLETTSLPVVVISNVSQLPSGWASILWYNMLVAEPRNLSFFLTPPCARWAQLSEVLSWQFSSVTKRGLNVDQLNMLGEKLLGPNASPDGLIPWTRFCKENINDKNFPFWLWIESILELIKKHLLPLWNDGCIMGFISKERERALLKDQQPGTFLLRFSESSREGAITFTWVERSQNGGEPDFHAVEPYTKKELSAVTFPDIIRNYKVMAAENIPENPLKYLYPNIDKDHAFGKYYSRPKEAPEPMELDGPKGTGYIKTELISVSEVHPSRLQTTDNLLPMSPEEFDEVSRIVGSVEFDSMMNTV

[1] = system: Stat3-dependent firefly luciferase reporter pLucTKS3; test: Stat3-dependent luciferase reporter assay; format: cell-based, mouse; details: stable NIH3T3/v-Src/pLucTKS3, 48 h
Protocol: FIGS. 3A-3D. Inhibition of Stat3-mediated gene expression by PLATINUM-401. (FIG. 3A) and (FIG. 3B) v-Src-transformed mouse fibroblasts that stably express Stat3-dependent (NIH3T3/v-Src/pLucTKS3) and Stat3-independent (NIH3T3/v-Src/pRLSRE) luciferase reporters or β-galactosidase (β-gal), as well as normal mouse fibroblast (NIH3T3) transiently transfected with pLucTKS3, pGL2-VEGF-Luc, NFkB-Luc or pLucSRE together with or without v-Src were treated with or without PLATINUM-401 for 48 h. Cytosolic extracts were then prepared from cells for luciferase and […] activities measurements. […]
Cytosolic extract preparation and luciferase assays—Cytosolic extract preparation from fibroblasts and luciferase assays were previously described (Turkson et al., 1998; Turkson et al., 1999). […] Cells were resuspended in 0.4 ml of low-salt HEPES buffer (10 mM HEPES [pH 7.8], 10 mM KCl, 0.1 mM EGTA, 0.1 mM EDTA, 1 mM phenylmethylsulfonyl fluoride (PMSF), and 1 mM dithiothreitol (DTT)) for 15 min, lysed by the addition of 20 μl of 10% Nonidet P-40 (NP-40), and centrifuged (10,000×g, 30 s, 4° C.) to obtain the cytosolic supernatant, which was used for luciferase assays (Promega) measured with a luminometer. […]
To further investigate the activities of PLATINUM-401, the inventors treated malignant cells and measured effects on Stat3 signaling. […]

**Q.** Which results are given for `CC(O)CN1CCN(CC(C)O)CC1` (centres unmarked) [PLATINUM-401]?
**A.** interaction with inactive Stat1 monomer (inactive Stat1 monomer): also interacts; induction of Stat3-dependent reporter [1]: strongly suppresses
